Source: patent US9492471B2, “Methods of treating a disease or disorder associated with Bruton'S Tyrosine Kinase” (Celgene Avilomics Research, Inc., priority 2013, dated 2016)
Like-named read-outs stand apart in the source and are kept apart here.

Key:
Experiment in all cases: HotSpot kinase profiling
Format in all cases: biochemical
CDK16/cyclin Y = target: T1, CDK16/cyclin Y (Homo sapiens, UniProt Q00536)
T1 construct: purchased Reaction Biology Corp
In short: (§1)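 Percent inhibition, averaged when run more than once and referenced to a DMSO negative control, came from a radioactive filter-binding readout on P81 paper. Reactions of kinase with freshly made substrate and cofactors ran for 2 h at room temperature.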

CDK3/cyclin E = target: T2, CDK3/cyclin E (Homo sapiens, UniProt Q00526)
T2 construct: purchased Reaction Biology Corp
In short: as §1

ULK3 = target: T3, ULK3 (Homo sapiens, UniProt Q6PHR2)
T3 construct: purchased Reaction Biology Corp
T3 sequence (Q6PHR2 1-472): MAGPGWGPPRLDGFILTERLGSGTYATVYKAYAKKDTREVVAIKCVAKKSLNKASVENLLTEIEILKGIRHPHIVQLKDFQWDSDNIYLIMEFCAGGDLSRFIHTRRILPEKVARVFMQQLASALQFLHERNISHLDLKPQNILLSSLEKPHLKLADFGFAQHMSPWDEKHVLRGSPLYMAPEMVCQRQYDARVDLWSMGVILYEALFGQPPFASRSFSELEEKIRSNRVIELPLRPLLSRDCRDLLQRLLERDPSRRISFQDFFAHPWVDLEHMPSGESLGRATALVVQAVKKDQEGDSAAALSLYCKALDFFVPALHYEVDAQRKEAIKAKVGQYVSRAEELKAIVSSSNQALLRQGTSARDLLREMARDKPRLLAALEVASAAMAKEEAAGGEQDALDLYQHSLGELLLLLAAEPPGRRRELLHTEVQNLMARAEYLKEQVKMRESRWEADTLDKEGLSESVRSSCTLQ
In short: as §1

EPHA5 = target: T4, EPHA5 (Homo sapiens, UniProt P54756)
T4 construct: purchased Reaction Biology Corp
In short: as §1

PAK4 = target: T5, PAK4 (Homo sapiens, UniProt O96013)
T5 construct: purchased Reaction Biology Corp
In short: as §1

IRAK4 = target: T6, IRAK4 (Homo sapiens, UniProt Q9NWZ3)
T6 construct: purchased Reaction Biology Corp
T6 sequence (Q9NWZ3 1-460): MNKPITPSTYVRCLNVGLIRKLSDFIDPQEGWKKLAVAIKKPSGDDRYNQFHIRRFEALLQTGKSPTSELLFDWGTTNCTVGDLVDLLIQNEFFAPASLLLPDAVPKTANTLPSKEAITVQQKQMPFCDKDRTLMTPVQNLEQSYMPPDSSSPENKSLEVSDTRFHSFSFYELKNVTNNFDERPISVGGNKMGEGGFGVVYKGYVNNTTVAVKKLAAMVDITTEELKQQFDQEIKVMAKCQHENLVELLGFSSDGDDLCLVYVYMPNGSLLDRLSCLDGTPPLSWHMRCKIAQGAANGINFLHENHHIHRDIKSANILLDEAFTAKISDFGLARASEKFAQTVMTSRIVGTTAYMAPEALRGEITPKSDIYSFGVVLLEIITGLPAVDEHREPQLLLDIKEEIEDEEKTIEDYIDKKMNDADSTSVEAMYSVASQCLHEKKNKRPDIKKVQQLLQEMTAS
In short: as §1

GRK1 = target: T7, GRK1 (Homo sapiens, UniProt Q15835)
T7 construct: purchased Reaction Biology Corp
T7 sequence (Q15835 1-563): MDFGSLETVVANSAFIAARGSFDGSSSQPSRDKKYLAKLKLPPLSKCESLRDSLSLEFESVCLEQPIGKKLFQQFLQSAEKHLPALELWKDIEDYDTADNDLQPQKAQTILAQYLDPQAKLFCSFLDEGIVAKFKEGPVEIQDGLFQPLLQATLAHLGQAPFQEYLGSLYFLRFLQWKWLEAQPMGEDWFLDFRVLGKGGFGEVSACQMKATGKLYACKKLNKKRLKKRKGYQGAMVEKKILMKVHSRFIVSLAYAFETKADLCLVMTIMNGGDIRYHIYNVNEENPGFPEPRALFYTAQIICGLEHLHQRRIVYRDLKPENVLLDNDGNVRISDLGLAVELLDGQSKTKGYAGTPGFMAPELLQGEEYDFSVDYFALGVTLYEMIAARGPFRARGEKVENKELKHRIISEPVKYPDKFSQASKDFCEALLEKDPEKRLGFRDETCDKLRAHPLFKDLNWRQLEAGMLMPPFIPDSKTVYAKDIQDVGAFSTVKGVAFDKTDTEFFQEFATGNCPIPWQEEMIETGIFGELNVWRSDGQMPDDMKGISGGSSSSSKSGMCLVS
In short: as §1

TTBK1 = target: T8, TTBK1 (Homo sapiens, UniProt Q5TCY1)
T8 construct: purchased Reaction Biology Corp
In short: as §1

[1] = read-out: % Enzyme Activity (relative to DMSO controls) Run 1
[2] = read-out: % Enzyme Activity (relative to DMSO controls) Run 2

T1 sequence (Q00536 whole entry): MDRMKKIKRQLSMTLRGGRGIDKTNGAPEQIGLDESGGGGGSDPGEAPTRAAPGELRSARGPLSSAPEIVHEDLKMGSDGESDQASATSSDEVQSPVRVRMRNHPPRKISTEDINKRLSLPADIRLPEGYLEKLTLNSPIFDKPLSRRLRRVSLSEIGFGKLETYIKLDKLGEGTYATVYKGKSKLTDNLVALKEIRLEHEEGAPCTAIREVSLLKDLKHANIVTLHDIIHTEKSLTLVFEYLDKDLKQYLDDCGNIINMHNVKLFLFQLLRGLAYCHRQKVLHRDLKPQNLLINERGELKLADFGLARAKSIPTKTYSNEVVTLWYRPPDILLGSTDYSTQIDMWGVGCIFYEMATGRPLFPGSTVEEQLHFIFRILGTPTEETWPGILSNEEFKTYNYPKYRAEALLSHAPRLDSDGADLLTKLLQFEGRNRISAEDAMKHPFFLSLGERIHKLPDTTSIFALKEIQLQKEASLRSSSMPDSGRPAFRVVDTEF
T1 sequence (Q8ND76 whole entry partner): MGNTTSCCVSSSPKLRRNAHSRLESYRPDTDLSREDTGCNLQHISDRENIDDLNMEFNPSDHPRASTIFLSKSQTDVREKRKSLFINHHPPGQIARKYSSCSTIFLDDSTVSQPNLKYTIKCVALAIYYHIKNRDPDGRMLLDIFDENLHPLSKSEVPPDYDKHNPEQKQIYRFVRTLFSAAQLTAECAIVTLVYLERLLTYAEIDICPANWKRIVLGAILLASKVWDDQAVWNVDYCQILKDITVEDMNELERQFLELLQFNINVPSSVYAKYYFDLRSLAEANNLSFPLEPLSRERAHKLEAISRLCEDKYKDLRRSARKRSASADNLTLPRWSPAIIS
T4 sequence (P54756 25-1037): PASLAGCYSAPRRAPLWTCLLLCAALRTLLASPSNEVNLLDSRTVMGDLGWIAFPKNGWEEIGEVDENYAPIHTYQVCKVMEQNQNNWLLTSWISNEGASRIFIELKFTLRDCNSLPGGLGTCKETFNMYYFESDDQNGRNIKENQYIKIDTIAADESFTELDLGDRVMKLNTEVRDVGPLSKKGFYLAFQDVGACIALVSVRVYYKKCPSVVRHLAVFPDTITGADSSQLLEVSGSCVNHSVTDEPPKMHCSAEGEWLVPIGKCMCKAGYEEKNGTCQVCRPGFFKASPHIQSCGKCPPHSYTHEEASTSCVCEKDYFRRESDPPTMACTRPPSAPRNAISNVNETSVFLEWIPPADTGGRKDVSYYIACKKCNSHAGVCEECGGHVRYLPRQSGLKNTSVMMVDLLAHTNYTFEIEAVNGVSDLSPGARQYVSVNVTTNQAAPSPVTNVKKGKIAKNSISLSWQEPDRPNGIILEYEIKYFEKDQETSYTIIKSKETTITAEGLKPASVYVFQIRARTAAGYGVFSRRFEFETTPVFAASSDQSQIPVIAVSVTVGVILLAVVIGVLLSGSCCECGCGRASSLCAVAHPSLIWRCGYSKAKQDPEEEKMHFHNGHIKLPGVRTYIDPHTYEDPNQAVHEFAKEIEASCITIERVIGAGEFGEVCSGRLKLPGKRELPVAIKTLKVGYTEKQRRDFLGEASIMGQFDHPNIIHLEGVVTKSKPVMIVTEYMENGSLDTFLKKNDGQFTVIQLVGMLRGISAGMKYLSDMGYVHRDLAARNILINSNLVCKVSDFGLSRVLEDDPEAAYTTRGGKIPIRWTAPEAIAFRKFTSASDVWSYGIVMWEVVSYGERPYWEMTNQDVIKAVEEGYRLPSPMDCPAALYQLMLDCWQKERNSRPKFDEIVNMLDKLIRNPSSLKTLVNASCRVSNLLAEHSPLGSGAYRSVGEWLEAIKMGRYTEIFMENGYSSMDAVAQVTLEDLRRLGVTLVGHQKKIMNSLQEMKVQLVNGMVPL
T5 sequence (O96013 whole entry): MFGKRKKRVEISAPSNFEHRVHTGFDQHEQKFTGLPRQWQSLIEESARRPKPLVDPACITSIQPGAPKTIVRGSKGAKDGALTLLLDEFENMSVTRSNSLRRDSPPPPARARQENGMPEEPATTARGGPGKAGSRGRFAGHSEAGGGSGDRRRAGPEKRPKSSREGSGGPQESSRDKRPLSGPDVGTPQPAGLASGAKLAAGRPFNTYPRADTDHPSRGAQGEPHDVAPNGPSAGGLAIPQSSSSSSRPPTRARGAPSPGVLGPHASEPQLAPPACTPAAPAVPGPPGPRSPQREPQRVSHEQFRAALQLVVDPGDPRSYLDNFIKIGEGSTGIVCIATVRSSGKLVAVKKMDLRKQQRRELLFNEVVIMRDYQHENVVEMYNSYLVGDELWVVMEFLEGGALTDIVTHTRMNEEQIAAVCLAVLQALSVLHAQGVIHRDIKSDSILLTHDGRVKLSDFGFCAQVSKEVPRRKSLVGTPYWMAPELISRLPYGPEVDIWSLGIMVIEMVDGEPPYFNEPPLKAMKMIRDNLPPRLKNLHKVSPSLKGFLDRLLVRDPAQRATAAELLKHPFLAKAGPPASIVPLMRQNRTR
T2 sequence (Q00526 whole entry): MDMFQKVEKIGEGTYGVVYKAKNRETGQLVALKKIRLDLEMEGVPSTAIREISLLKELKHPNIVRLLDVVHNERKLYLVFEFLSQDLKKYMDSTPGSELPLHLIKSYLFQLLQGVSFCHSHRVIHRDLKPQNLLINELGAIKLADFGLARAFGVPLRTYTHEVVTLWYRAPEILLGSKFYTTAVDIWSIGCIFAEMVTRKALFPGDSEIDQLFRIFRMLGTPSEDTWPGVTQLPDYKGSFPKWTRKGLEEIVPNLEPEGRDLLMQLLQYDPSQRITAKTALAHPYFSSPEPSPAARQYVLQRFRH
T2 sequence (P24864 whole entry partner): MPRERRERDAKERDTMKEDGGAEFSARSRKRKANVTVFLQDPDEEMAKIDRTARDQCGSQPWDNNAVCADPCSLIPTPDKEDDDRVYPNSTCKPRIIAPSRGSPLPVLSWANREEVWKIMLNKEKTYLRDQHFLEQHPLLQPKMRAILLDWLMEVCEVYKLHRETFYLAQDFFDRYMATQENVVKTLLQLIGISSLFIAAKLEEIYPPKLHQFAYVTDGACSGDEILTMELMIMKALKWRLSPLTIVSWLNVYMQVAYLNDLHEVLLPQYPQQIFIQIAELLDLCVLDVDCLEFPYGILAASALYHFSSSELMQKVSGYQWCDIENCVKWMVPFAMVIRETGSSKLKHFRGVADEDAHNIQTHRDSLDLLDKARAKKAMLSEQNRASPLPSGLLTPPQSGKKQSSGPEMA
T8 sequence (Q5TCY1 whole entry): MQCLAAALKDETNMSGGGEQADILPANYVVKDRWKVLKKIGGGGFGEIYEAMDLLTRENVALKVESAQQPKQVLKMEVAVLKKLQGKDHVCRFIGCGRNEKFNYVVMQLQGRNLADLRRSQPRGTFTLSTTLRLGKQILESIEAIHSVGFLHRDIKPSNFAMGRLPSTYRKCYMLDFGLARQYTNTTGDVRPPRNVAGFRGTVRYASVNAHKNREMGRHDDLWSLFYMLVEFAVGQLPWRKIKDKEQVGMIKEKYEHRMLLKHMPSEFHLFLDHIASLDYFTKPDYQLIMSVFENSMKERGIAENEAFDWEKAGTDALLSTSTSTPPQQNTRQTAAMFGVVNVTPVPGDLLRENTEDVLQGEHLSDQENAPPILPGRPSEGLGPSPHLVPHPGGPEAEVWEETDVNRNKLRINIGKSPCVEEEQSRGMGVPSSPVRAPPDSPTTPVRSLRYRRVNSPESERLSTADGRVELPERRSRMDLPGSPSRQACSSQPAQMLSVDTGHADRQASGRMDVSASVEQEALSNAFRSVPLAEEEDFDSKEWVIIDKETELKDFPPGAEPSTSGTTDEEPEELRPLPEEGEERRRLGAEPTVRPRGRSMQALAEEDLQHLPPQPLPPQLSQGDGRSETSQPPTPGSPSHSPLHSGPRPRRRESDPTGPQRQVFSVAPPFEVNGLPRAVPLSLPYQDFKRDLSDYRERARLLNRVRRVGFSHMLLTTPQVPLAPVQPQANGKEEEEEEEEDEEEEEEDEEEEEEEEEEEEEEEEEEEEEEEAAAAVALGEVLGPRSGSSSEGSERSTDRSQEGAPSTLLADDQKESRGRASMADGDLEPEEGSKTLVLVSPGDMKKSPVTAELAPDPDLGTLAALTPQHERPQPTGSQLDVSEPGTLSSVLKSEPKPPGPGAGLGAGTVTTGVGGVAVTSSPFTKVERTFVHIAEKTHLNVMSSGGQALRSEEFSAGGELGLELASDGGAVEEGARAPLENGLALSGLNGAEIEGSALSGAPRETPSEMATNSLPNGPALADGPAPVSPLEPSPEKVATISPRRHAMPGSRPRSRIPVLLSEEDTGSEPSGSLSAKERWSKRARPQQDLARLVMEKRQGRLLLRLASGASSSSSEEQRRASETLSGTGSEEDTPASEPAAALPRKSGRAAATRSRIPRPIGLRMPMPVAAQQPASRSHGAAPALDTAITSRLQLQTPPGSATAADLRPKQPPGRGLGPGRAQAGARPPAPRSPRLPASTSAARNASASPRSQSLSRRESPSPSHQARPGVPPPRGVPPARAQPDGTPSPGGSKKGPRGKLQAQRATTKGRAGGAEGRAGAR

SMILES: C=CC(=O)Nc1cccc(Nc2nc(Nc3ccc(OCCOC)c(F)c3)ncc2F)c1 [Compound 2]
- inhibition at 3 µM (CDK16/cyclin Y): -3.73%
- remaining activity at 3 µM (CDK16/cyclin Y; [1]): 104%
- remaining activity at 3 µM (CDK16/cyclin Y; [2]): 103%
- inhibition at 3 µM (CDK3/cyclin E): 22.4%
- remaining activity at 3 µM (CDK3/cyclin E; [1]): 78.2%
- remaining activity at 3 µM (CDK3/cyclin E; [2]): 77%
- inhibition at 3 µM (ULK3): 21.7%
- remaining activity at 3 µM (ULK3; [1]): 79.6%
- remaining activity at 3 µM (ULK3; [2]): 77%
- inhibition at 3 µM (EPHA5): 8.66%
- remaining activity at 3 µM (EPHA5; [1]): 89.1%
- remaining activity at 3 µM (EPHA5; [2]): 93.6%
- inhibition at 3 µM (PAK4): 2.45%
- remaining activity at 3 µM (PAK4; [1]): 98.7%
- remaining activity at 3 µM (PAK4; [2]): 96.4%
- inhibition at 3 µM (IRAK4): 12.4%
- remaining activity at 3 µM (IRAK4; [1]): 88.6%
- remaining activity at 3 µM (IRAK4; [2]): 86.5%
- inhibition at 3 µM (GRK1): -3.47%
- remaining activity at 3 µM (GRK1; [1]): 104%
- remaining activity at 3 µM (GRK1; [2]): 103%
- inhibition at 3 µM (TTBK1): -1.65%
- remaining activity at 3 µM (TTBK1; [1]): 101%
- remaining activity at 3 µM (TTBK1; [2]): 102%
